# Values of other authors in US20260216065A1, “PHARMACEUTICAL COMPOSITIONS FOR NASAL DELIVERY” (Therakind Limited, priority 2023, published 2026).
# Conditions: room temperature (25° C.)
compound,measurement,value
"Cc1nccn1CC1CCc2c(c3ccccc3n2C)C1=O (racemic) [ondansetron, (RS)-9-Methyl-3-[(2-methyl-1H-imidazol-1-yl)methyl]-2,3-dihydro-1H-carbazol-4(9H)-one]",time for which nasal spray solutions are stable,48 h
